This assay has as its target T1, IGF-1R Ba/F3 (Homo sapiens, UniProt P08069).
T1 construct: fused on or other part: TEL- (or BCR-) IGF-1R in Ba/F3: the kinase part holds the site
The assay is described as follows: Ba/F3 Cell Viability Inhibition Assay (IGF-1R Ba/F3). To be noted: Tel-TK transformed Ba/F3 cells, 48 hours, Britelite luminescence. It counts as cell-based, murine. The method, boiled down: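 IL-3-independent murine Ba/F3 cells transformed with a TEL/BCR-fused IGF-1R kinase were seeded at 3750 cells/well and exposed to serially diluted compound for 48 h at 37 °C. Viability was read by Britelite luminescence. IC50 is the concentration giving 50% of DMSO-control viability, from a logistic fit.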
T1 sequence (P08069 999-1274 limits assumed): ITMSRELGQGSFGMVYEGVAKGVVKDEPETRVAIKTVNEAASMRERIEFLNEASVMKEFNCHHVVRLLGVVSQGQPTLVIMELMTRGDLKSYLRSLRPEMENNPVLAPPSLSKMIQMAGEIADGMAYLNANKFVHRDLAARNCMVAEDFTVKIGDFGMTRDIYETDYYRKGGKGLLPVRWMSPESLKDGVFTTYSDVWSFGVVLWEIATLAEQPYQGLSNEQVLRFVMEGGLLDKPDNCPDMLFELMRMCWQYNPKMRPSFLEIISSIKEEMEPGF
Take `Cc1cc(Nc2nc(Nc3cc(C)c(C4CCN(C(=O)[C@@H]5CCCN5C)CC4)cc3C)ncc2Cl)n[nH]1` [Compound 121, (S)-(4-(4-(5-chloro-4-(5-methyl-1H-pyrazol-3-ylamino)pyrimidin-2-ylamino)-2,5-dimethylphenyl)piperidin-1-yl)(1-methylpyrrolidin-2-yl)methanone]: the IC50 is 0.017 µM. `Cc1cc(Nc2nc(Nc3cc(C)c(C4CCN(C(=O)N5CCOCC5)CC4)cc3F)ncc2Cl)n[nH]1` [Compound 111, (4-(4-(5-chloro-4-(5-methyl-1H-pyrazol-3-ylamino)pyrimidin-2-ylamino)-5-fluoro-2-methylphenyl)piperidin-1-yl)(morpholino)methanone]: the IC50 worked out at 0.008 µM. Against the preceding molecule, the IC50 is about 2.1-fold lower. `Cc1cc(Nc2nc(Nc3cc(C)c(C4CCNCC4)cc3C)ncc2C)n[nH]1` [Compound 178, N2-(2,5-dimethyl-4-(piperidin-4-yl)phenyl)-5-methyl-N4-(5-methyl-1H-pyrazol-3-yl)pyrimidine-2,4-diamine] showed an IC50 of 3.23 µM. `Cc1cc(Nc2nc(Nc3cc(C)c(C4CCN(Cc5cncnc5)CC4)cc3F)ncc2Cl)n[nH]1` [Compound 314, 5-Chloro-N^2-(2-fluoro-5-methyl-4-(1-(pyrimidin-5-ylmethyl)piperidin-4-yl)phenyl)-N^4-(5-methyl-1H-pyrazol-3-yl)pyrimidine-2,4-diamine] came in with an IC50 of 0.037 µM. In turn, `Cc1cc(Nc2nc(Nc3cc(C)c(C4CCN(CCC(F)(F)F)CC4)cc3F)ncc2Cl)n[nH]1` [Compound 24, 5-chloro-N^2-(2-fluoro-5-methyl-4-(1-(3,3,3-trifluoropropyl)piperidin-4-yl)phenyl)-N^4-(5-methyl-1H-pyrazol-3-yl)pyrimidine-2,4-diamine] came in with an IC50 of 0.085 µM. `Cc1cc(Nc2nc(Nc3cc(C)c(C4CCN(CCC(F)(F)F)CC4)cc3C)ncc2Cl)n[nH]1` [Compound 25, 5-chloro-N2-(2,5-dimethyl-4-(1-(3,3,3-trifluoropropyl)piperidin-4-yl)phenyl)-N4-(5-methyl-1H-pyrazol-3-yl)pyrimidine-2,4-diamine] showed an IC50 of 0.031 µM. This IC50 is about 2.7-fold lower than that of the molecule before. Molecule `Cc1cc(Nc2nc(Nc3cc(C)c(C4CCN(Cc5cccnc5)CC4)cc3C)ncc2Cl)n[nH]1` [Compound 308, 5-chloro-N2-(2,5-dimethyl-4-(1-(pyridin-3-ylmethyl)piperidin-4-yl)phenyl)-N4-(5-methyl-1H-pyrazol-3-yl)pyrimidine-2,4-diamine] came in with an IC50 of 0.006 µM.

As to `Cc1cc(Nc2nc(Nc3cc(C)c(C4CCN(C(=O)[C@@H]5CCCN5)CC4)cc3F)ncc2Cl)n[nH]1` [Compound 116, (S)-(4-(4-(5-chloro-4-(5-methyl-1H-pyrazol-3-ylamino)pyrimidin-2-ylamino)-5-fluoro-2-methylphenyl)piperidin-1-yl)(pyrrolidin-2-yl)methanone], half-maximal inhibition (IC50) was put at 0.137 µM. Compared with the last molecule, the IC50 is about 23-fold higher.

For the molecule `Cc1cc(Nc2nc(Nc3cc(C)c(C4CCS(=O)(=O)C4)cc3C)ncc2Cl)n[nH]1` (stereo not shown) [Compound 154, 5-Chloro-N^2-[4-(1,1-dioxo-tetrahydro-1λ^6-thiophen-3-yl)-2,5-dimethyl-phenyl]-N^4-(5-methyl-1H-pyrazol-3-yl)-pyrimidine-2,4-diamine], it took 0.012 µM to reach half-maximal inhibition (IC50). With `Cc1cc(Nc2nc(Nc3cc(C)c(C4CCN(Cc5noc(C)n5)CC4)cc3F)ncc2Cl)n[nH]1` [Compound 292, 5-chloro-N2-(2-fluoro-5-methyl-4-(1-((5-methyl-1,2,4-oxadiazol-3-yl)methyl)piperidin-4-yl)phenyl)-N4-(5-methyl-1H-pyrazol-3-yl)pyrimidine-2,4-diamine], the IC50 was 0.023 µM. In turn, `Cc1cc(Nc2nc(Nc3cc(C)c(C4CCN(Cc5noc(C(C)(C)C)n5)CC4)cc3C)ncc2Cl)n[nH]1` [Compound 266, N2-(4-(1-((5-tert-butyl-1,2,4-oxadiazol-3-yl)methyl)piperidin-4-yl)-2,5-dimethylphenyl)-5-chloro-N4-(5-methyl-1H-pyrazol-3-yl)pyrimidine-2,4-diamine] showed an IC50 of 0.025 µM. The IC50 values of the last two molecules are within 1.5-fold of each other. `Cc1cc(Nc2nc(Nc3cc(C)c(C4CCN(CC(N)=O)CC4)cc3F)ncc2Cl)n[nH]1` [Compound 39, 2-(4-(4-(5-Chloro-4-(5-methyl-1H-pyrazol-3-ylamino)pyrimidin-2-ylamino)-5-fluoro-2-methylphenyl)piperidin-1-yl)acetamide] gave an IC50 of 0.019 µM. Molecule `Cc1cc(Nc2nc(Nc3cc(C)c(C4CCN(C(=O)N5CCNC5=O)CC4)cc3C)ncc2Cl)n[nH]1` [Compound 113, 1-(4-(4-(5-chloro-4-(5-methyl-1H-pyrazol-3-ylamino)pyrimidin-2-ylamino)-2,5-dimethylphenyl)piperidine-1-carbonyl)imidazolidin-2-one] displayed a 50% inhibitory concentration (IC50) of 0.013 µM. `COCCN1CCC(c2cc(C)c(Nc3ncc(Cl)c(Nc4cc(C)[nH]n4)n3)cc2C)CC1` [Compound 212, 5-chloro-N2-(4-(1-(2-methoxyethyl)piperidin-4-yl)-2,5-dimethylphenyl)-N4-(5-methyl-1H-pyrazol-3-yl)pyrimidine-2,4-diamine]: the half-inhibitory concentration (IC50) came out at 0.013 µM. This lies in the double-digit nanomolar range. On to `Cc1cc(Nc2nc(Nc3cc(C)c(C4CCN(C)C(C)C4)cc3F)ncc2Cl)n[nH]1` (stereo not shown) [Compound 275, 5-chloro-N2-(4-(1,2-dimethylpiperidin-4-yl)-2-fluoro-5-methylphenyl)-N4-(5-methyl-1H-pyrazol-3-yl)pyrimidine-2,4-diamine], for which the IC50 turned out to be 0.009 µM. Turning to `Cc1cc(Nc2nc(Nc3cc(Cl)c(C4CCN(C5CCS(=O)(=O)C5)CC4)cc3C)ncc2Cl)n[nH]1` (stereo not shown) [Compound 144, 5-chloro-N^2-(2-methyl-5-chloro-4-(1-(tetrahydro-1,1-dioxido-3-thienyl)piperidin-4-yl)phenyl)-N^4-(5-methyl-1H-pyrazol-3-yl)pyrimidine-2,4-diamine], the IC50 came to 0.007 µM. The IC50 values of the last two molecules are within 1.5-fold of each other.

The molecule `Cc1cc(Nc2nc(Nc3cc(C(F)(F)F)c(C4CCN(CC(N)=O)CC4)cc3C)ncc2Cl)n[nH]1` [Compound 47, 2-(4-(4-(5-chloro-4-(5-methyl-1H-pyrazol-3-ylamino)pyrimidin-2-ylamino)-5-methyl-2-(trifluoromethyl)phenyl)piperidin-1-yl)acetamide] had an IC50 of 0.022 µM. Against the preceding molecule, the IC50 is about 3.1-fold higher. Molecule `Cc1cc(Nc2nc(Nc3cc(C)c(C4CCN(CCC(=O)N5CCCC5)CC4)cc3F)ncc2Cl)n[nH]1` [Compound 242, 3-(4-(4-(5-chloro-4-(5-methyl-1H-pyrazol-3-ylamino)pyrimidin-2-ylamino)-5-fluoro-2-methylphenyl)piperidin-1-yl)-1-(pyrrolidin-1-yl)propan-1-one] came in with an IC50 of 0.06 µM. For `Cc1cc(Nc2nc(Nc3cc(C)c(C4CCN(C(=O)C5CCN(C)CC5)CC4)cc3F)ncc2Cl)n[nH]1` [Compound 118, (4-(4-(5-chloro-4-(5-methyl-1H-pyrazol-3-ylamino)pyrimidin-2-ylamino)-5-fluoro-2-methylphenyl)piperidin-1-yl)(1-methylpiperidin-4-yl)methanone] the value was 0.081 µM. For `Cc1cc(Nc2nc(Nc3cc(C)c(C4CCN([C@@H](C)C(N)=O)CC4)cc3F)ncc2Cl)n[nH]1` [Compound 163] the value was 0.056 µM; for `Cc1cc(Nc2nc(Nc3cc(C)c(C4CCN(C(=O)[C@H]5CCCN5C(C)C)CC4)cc3F)ncc2Cl)n[nH]1` [Compound 135, (R)-(4-(4-(5-chloro-4-(5-methyl-1H-pyrazol-3-ylamino)pyrimidin-2-ylamino)-5-fluoro-2-methylphenyl)piperidin-1-yl)(1-isopropylpyrrolidin-2-yl)methanone], 0.048 µM. The molecule `Cc1cc(Nc2nc(Nc3cc(C)c(C4CCN(Cc5noc(C(C)(C)C)n5)CC4)cc3F)ncc2Cl)n[nH]1` [Compound 267, N2-(4-(1-((5-tert-butyl-1,2,4-oxadiazol-3-yl)methyl)piperidin-4-yl)-2-fluoro-5-methylphenyl)-5-chloro-N4-(5-methyl-1H-pyrazol-3-yl)pyrimidine-2,4-diamine] yielded an IC50 of 0.077 µM. This IC50 lies about 1.6-fold higher than the previous one. As to `CNC(=O)C(C)N1CCC(c2cc(F)c(Nc3ncc(Cl)c(Nc4cc(C)[nH]n4)n3)cc2C)CC1` (stereo not shown) [Compound 50, 2-(4-(4-(5-chloro-4-(5-methyl-1H-pyrazol-3-ylamino)pyrimidin-2-ylamino)-5-fluoro-2-methylphenyl)piperidin-1-yl)-N-methylpropanamide], the half-inhibitory concentration (IC50) is 0.022 µM. Compared with the last molecule, the IC50 is about 3.5-fold lower. `Cc1cc(Nc2nc(Nc3cc(C)c(C4CCN(CCS(=O)(=O)N(C)C)CC4)cc3F)ncc2Cl)n[nH]1` [Compound 58, 2-(4-(4-(5-chloro-4-(5-methyl-1H-pyrazol-3-ylamino)pyrimidin-2-ylamino)-5-fluoro-2-methylphenyl)piperidin-1-yl)-N,N-dimethylethanesulfonamide] returned an IC50 of 0.036 µM.

For `Cc1cc(C2CCN(C3CC3)CC2)c(C)cc1Nc1ncc(Cl)c(Nc2cc(C3CC3)[nH]n2)n1` [Compound 258, 5-chloro-N4-(5-cyclopropyl-1H-pyrazol-3-yl)-N2-(4-(1-cyclopropylpiperidin-4-yl)-2,5-dimethylphenyl)pyrimidine-2,4-diamine], half-maximal inhibition (IC50) required 0.026 µM.

On to `COc1cc(Nc2ncc(Cl)c(Nc3cc(C)[nH]n3)n2)c(C)cc1C1CCN(C[C@@H](O)C(F)(F)F)CC1` [Compound 228, (R)-3-(4-(4-(5-chloro-4-(5-methyl-1H-pyrazol-3-ylamino)pyrimidin-2-ylamino)-2-methoxy-5-methylphenyl)piperidin-1-yl)-1,1,1-trifluoropropan-2-ol], for which 0.023 µM corresponded to half-maximal inhibition (IC50).

`Cc1cc(Nc2nc(Nc3cc(C)c(C4CCN(CCC#N)CC4)cc3F)ncc2Cl)n[nH]1` [Compound 200, 3-(4-(4-(5-chloro-4-(5-methyl-1H-pyrazol-3-ylamino)pyrimidin-2-ylamino)-5-fluoro-2-methylphenyl)piperidin-1-yl)propanenitrile] showed an IC50 of 0.036 µM. Molecule `Cc1cc(Nc2nc(Nc3cc(C)c(C4CCN(CCC(=O)N5CCCC5)CC4)cc3C)ncc2Cl)n[nH]1` [Compound 238, 3-(4-(4-(5-chloro-4-(5-methyl-1H-pyrazol-3-ylamino)pyrimidin-2-ylamino)-2,5-dimethylphenyl)piperidin-1-yl)-1-(pyrrolidin-1-yl)propan-1-one] came in with an IC50 of 0.039 µM.

Usually IC50 stands for the concentration that gives 50% inhibition. Read a high IC50 as weaker potency in that assay.

(Values after patent US8859574B2 (IRM LLC, priority 2008, dated 2014).)
